Earlier results in patent publication US20190209701A1, “COMBINATION THERAPY WITH A MEK INHIBITOR, A PD-1 AXIS INHIBITOR, AND A TAXANE” (Genentech, Inc., priority 2016, published 2019).
Read-outs that look alike come from different tables or passages of the source.

Legend:
[1] = not given; remark: listed apart in the source
human tumor cell lines = settings: through inhibition of MEK1 and MEK2
[2] = system: human tumor xenograft models
[3] = system: cancer patients who harbored a BRAF, NRAS, or KRAS mutation
[4] = not given; remark: listed apart in the source
[5] = concentration-independent

Row | Compound | Kaplan-Meier estimated overall 24-week progression-free survival (PFS) rate (Study PCD4989g, 95% CI: 12%, 53%) | anti-tumor activity (across doses from 1 to 20 mg/kg) | exposure of fixed dose 800 mg q2w versus 1200 mg q3w ([1]; 800 mg every two weeks (equivalent to 10 mg/kg q2w) vs Phase III dose of 1200 mg q3w) | dose linearity of pharmacokinetics ([1]; doses ≥1 mg/kg every three weeks (q3w)) | proliferation of a variety of human tumor cell lines (human tumor cell lines) | tumor regression ([2]; dose dependent, highest doses tested, CRC, malignant melanoma, breast carcinoma, lung carcinoma models) | ERK phosphorylation in xenograft tumor models ([2]; xenograft tumor models) | response of colorectal cancer (CRC) patients ([3]; 14 CRC patients) | unconfirmed tumor responses ([3]; Stage III of Study MEK4592g, 2 patients) | patients with confirmed partial response (PR) ([3]; Study MEK4592g overall, 6 patients, all melanoma) | patients with progressive disease ([3]; Study MEK4592g overall, 40 patients) | dose linearity of pharmacokinetics ([4]; dose range of 0.05 mg/kg (approximately 3.5 mg for 70 kg adult) to 80 mg) | food effect on pharmacokinetics ([4]; fed state compared with fasted state, healthy subjects) | mean terminal half-life (t1/2) ([4]; oral) | absolute bioavailability ([4]; study MEK4952g in healthy subjects, 90% CI: 39.74%, 53.06%) | effect of proton pump inhibitor rabeprazole on pharmacokinetics ([4]; with or without high-fat meal vs cobimetinib alone in the fasted state) | binding to plasma proteins [5]
1 | Atezolizumab: anti-PD-L1 antibody, CAS Registry Number: 1422185-06-5 | 33% | anti-tumor activity has been observed | equivalent exposure | linear and consistent with typical IgG1 antibodies |  |  |  |  |  |  |  |  |  |  |  |  | 
2 | O=C(c1ccc(F)c(F)c1Nc1ccc(I)cc1F)N1CC(O)([C@@H]2CCCCN2)C1 [Cobimetinib] |  |  |  |  | inhibits proliferation | up to 100% | inhibits ERK phosphorylation | all patients experienced progressive disease | 11.1% | 6.2% | 41.2% | linear pharmacokinetics | not altered | 48.8 h | 45.9% | minimal effect | 95%
